Measured values: patent publication US20150290204A1, “COMBINATION THERAPY” (NOVARTIS AG, priority 2012, published 2015)
Read-outs that look alike come from different tables or passages of the source.

Details: mouse, in vivo
Description: For the in vivo testing in FIGS. 5, 6, 7 and 8, female nude (nu/nu) mice bearing LUF1656 lung primary tumor xenografts were treated with AUY922, Compound A, a combination of AUY922 and Compound A, or vehicle at the indicated doses and schedules. The treatments were started when mean tumor size reached approximately 140 mm^3 (range 86.8-245 mm^3). Statistics on change in tumor volumes and were performed with a one-way ANOVA, post hoc Tukey (* p<0.05 vs. vehicle controls).

Measured: Tolerability based on body weight

Cc1cc(Nc2ncc(Cl)c(Nc3ccccc3S(=O)(=O)C(C)C)n2)c(OC(C)C)cc1C1CCNCC1 [Compound A, 5-chloro-N2-(2-isopropoxy-5-methyl-4-(piperidin-4-yl)phenyl)-N4-[2-(propane-2-sulfonyl)-phenyl]-pyrimidine-2,4-diamine]
tolerated: 25 mg/kg | 50 mg/kg | 100 mg/kg
